The text below walks through data of patent US20240366723A1, “COMBINATION THERAPY FOR THE TREATMENT OF ENTERIC NEUROPATHIES” (TRANSFERT PLUS, LIMITED PARTNERSHIP, priority 2021, published 2024).

For assay [1], the system named is mouse model for Trisomy 21 [Collagen VI]-associated HSCR. The conditions noted are these: previous study, same mouse model; Soret et al., Gastroenterology 2020, Supplementary FIG. 1G; cited from earlier work.
The conditions of assay [2]: literature reports, various models; cited from earlier work.
The subject of assay [3] is Homozygous Holstein^Tg/Tg mice. Briefly: Survival of Hol^Tg/Tg mice after enema treatment (model of Trisomy 21 [Collagen VI]-associated HSCR). The class given is in vivo, mouse. On the procedure:
Mice. Homozygous Holstein^Tg/Tg mice (Hol^Tg/Tg; a model for Trisomy 21 [Collagen VI]-associated HSCR) were treated with either 10 μl enemas of GDNF (1 μg/μl), or 10 μl of GDNF combined with 5 mM of amino-butyrate acid (Butyrate) or other growth factors at 1 μg/μl, or vehicle (1×PBS) as control. Enemas were administered once a day from postnatal day (P) 4 until P8, and mice were monitored daily until P60 or megacolon-associated death. Survival graphs and statistical analyses were generated with GraphPad Prism software. One-way ANOVA followed by post-hoc Tukey multiple comparison test was carried out, and significance level was set at P<0.05. Number of biological replicates (n) of each cohort is indicated where relevant in Figures.
It was tested whether molecules known to have neurotrophic effects could improve the effect of GDNF on survival in a mouse model for Trisomy 21 [Collagen VI]-associated HSCR) (39).
The molecules that were tested in the present study are: Bone morphogenetic protein 4 (BMP4), Nerve growth factor (NGF), Brain-derived neurotrophic factor (BDNF), Mesencephalic Astrocyte Derived Neurotrophic Factor (MANF), Cerebral Dopamine Neurotrophic Factor (CDNF), Epidermal Growth Factor (EGF), Neurturin (NRTN), Fibroblast growth factor 2 (FGF2), butyrate and Retinoic Acid (RA).

“Also recorded” adds a separate entry of the source.

`NCCc1c[nH]c2ccc(O)cc12` [serotonin]: the “survival of mice, combination with GDNF relative to GDNF alone” value in assay [1] is given as “did not improve the survival of mice relative to GDNF alone”.

With EGF: Epidermal Growth Factor, in assay [2], the Reported neurotrophic activity result was “EGF is chemoattractant and chemokinetic molecule for”.

Consider “CDNF: Cerebral Dopamine Neurotrophic Factor”, for which the Reported neurotrophic activity result in assay [2] was “CDNF is essential for enteric neuronal development”.

For the compound “endothelin 3: molecule known to have neurotrophic effects, combined with GDNF in a previous study”, in assay [1], the “survival of mice, combination with GDNF relative to GDNF alone” value is “did not improve the survival of mice relative to GDNF alone”.

`O=C1O[C@H]([C@@H](O)CO)C(O)=C1O` [vitamin C]: in assay [1], the “survival of mice, combination with GDNF relative to GDNF alone” value was “did not improve the survival of mice relative to GDNF alone”.

Regarding `CCCC(=O)O` [butyrate], the “effect on survival of combination with GDNF relative to GDNF alone” value in assay [3] (10 μl enema of GDNF 1 μg/μl combined with 5 mM butyrate or other growth factor at 1 μg/μl, once a day P4 until P8, monitored until P60) is “significantly potentiate the effect of recombinant GDNF; also recorded: acts synergistically with GDNF to improve survival”. In addition, the “effect on mouse survival, substance alone” value in assay [3] (10 μl enema once a day P4 until P8, butyrate 5 mM, compared with vehicle (1×PBS), monitored until P60) is “did not have any effect on survival; also recorded: no effect on mouse survival”.

For the compound FGF2: Fibroblast growth factor 2, the Reported neurotrophic activity entry in assay [2] is “FGF2 enhances the proliferation and differentiation of”.
